{"source": "patent US6949518B1", "about": "“Methods for treating macular degeneration with topiramate” (priority 2003, dated 2005)", "origin": "cited, not measured here", "key": {"[1]": {"tested_on": "patients with type 2 diabetes"}, "[2]": {"conditions": "elimination predominantly unchanged via the renal route"}}, "data": [{"smiles": "CC1(C)O[C@@H]2[C@@H](CO[C@@]3(COS(N)(=O)=O)OC(C)(C)O[C@@H]23)O1", "note": "[topiramate, 2,3:4,5-Di-O-isopropylidene-β-D-fructopyranose sulfamate]", "values": [{"measurement": "dendrite length", "setting": "[1]; by the end of trial", "value": "increased"}, {"measurement": "peroneal nerve amplitude", "setting": "[1]; by the end of trial", "value": "increased"}, {"measurement": "total neuropathy scores", "setting": "[1]; end of trial, decreased from baseline 14, 11 patients, 25 mg/day titrated over 42 days to maximum tolerated dose or 100 mg/day, then 84 more days", "value": 11.8}, {"measurement": "solubility in acetone, chloroform, dimethylsulfoxide, and ethanol", "setting": "organic solvents", "value": "freely soluble"}, {"measurement": "pH of saturated solution", "setting": "saturated solution", "value": 6.3}, {"measurement": "plasma t½", "setting": "[2]", "value": "20 to 30", "unit": "h"}, {"measurement": "carbonic anhydrase inhibition", "setting": "carbonic anhydrase", "value": "weak carbonic anhydrase inhibitor"}]}]}
